Results as given in ChEMBL document CHEMBL5505968, “Hybrids of selective COX-2 inhibitors and active derivatives of edaravone as COX-2 selective NSAIDs with free radical scavenging activity: Design, synthesis and biological activities” (Eur J Med Chem, 2024).
Values belong to the compound of their own block, whether it stands above or below them.

Assays:
[1] = Antioxidant activity assessed as DPPH radical scavenging activity at 40 uM incubated for 30 mins by thermo-microplate photometric analysis relative to control; assay type: functional
[2] = biological target: Prostaglandin G/H synthase 2 (Homo sapiens) (UniProt P35354); test: Inhibition of COX-2 (unknown origin) using arachidonic acid as substrate at 1 uM preincubated for 10 mins followed by substrate addition and measured after 5 mins by fluorescence based analysis relative to control; settings: time 15.0 min
[3] = biological target: Prostaglandin G/H synthase 2 (Homo sapiens) (UniProt P35354); test: Inhibition of COX-2 (unknown origin) using arachidonic acid as substrate at 10 uM preincubated for 10 mins followed by substrate addition and measured after 5 mins by fluorescence based analysis relative to control; settings: time 15.0 min
[4] = Antioxidant activity assessed as DPPH radical scavenging activity incubated for 30 mins by thermo-microplate photometric analysis; assay type: functional
[5] = system: Mus musculus; test: Analgesic activity against acetic acid-induced ICR mouse assessed as number of writhing at 20 mg/kg,ip pre-administrated with compound for 15 mins followed by acetic acid addition and measured after 15 mins; assay type: functional; settings: time 30 min, 0.5 h
[6] = system: Mus musculus; test: Analgesic activity against acetic acid-induced ICR mouse assessed as inhibition of writhing at 20 mg/kg,ip pre-administrated with compound for 15 mins followed by acetic acid addition and measured after 15 mins; assay type: functional; settings: 0.5 h, time 30 min
[7] = system: Liver; test: Antioxidant activity against FeCl2 induced oxidative stress in ICR mouse liver assessed as inhibition of malondialdehyde level at 250 uM incubated for 60 mins by thermo-microplate photometric analysis relative to control; assay type: functional; settings: 1 h
[8] = system: Liver; test: Antioxidant activity against FeCl2 induced oxidative stress in ICR mouse liver assessed as inhibition of malondialdehyde level at 500 uM incubated for 60 mins by thermo-microplate photometric analysis relative to control; assay type: functional; settings: 1 h
[9] = system: Liver; test: Antioxidant activity against FeCl2 induced oxidative stress in ICR mouse liver assessed as inhibition of malondialdehyde level at 1000 uM incubated for 60 mins by thermo-microplate photometric analysis relative to control; assay type: functional; settings: 1 h
[10] = Tmax in ICR mouse at 1 mg/kg,iv administration measured for 0.25 to 8 hrs by LC-MS/MS analysis; assay type: ADME, organism-based; settings: in vivo, time 0.25-8 hrs
[11] = Tmax in ICR mouse at 10 mg/kg,po administration measured for 0.25 to 8 hrs by LC-MS/MS analysis; assay type: ADME, organism-based; settings: in vivo, time 0.25-8 hrs
[12] = Cmax in ICR mouse at 1 mg/kg,iv administration measured for 0.25 to 8 hrs by LC-MS/MS analysis; assay type: ADME, organism-based; settings: in vivo, time 0.25-8 hrs
[13] = Cmax in ICR mouse at 10 mg/kg,po administration measured for 0.25 to 8 hrs by LC-MS/MS analysis; assay type: ADME, organism-based; settings: in vivo, time 0.25-8 hrs
[14] = AUC (0 to t) in ICR mouse at 1 mg/kg,iv administration measured for 0.25 to 8 hrs by LC-MS/MS analysis; assay type: ADME, organism-based; settings: in vivo, time 0.25-8 hrs
[15] = AUC (0 to t) in ICR mouse at 10 mg/kg,po administration measured for 0.25 to 8 hrs by LC-MS/MS analysis; assay type: ADME, organism-based; settings: in vivo, time 0.25-8 hrs
[16] = AUC (0 to infinity) in ICR mouse at 1 mg/kg,iv administration measured for 0.25 to 8 hrs by LC-MS/MS analysis; assay type: ADME, organism-based; settings: in vivo, time 0.25-8 hrs
[17] = AUC (0 to infinity) in ICR mouse at 10 mg/kg,po administration measured for 0.25 to 8 hrs by LC-MS/MS analysis; assay type: ADME, organism-based; settings: in vivo, time 0.25-8 hrs
[18] = MRT (0 to infinity) in ICR mouse at 1 mg/kg,iv administration measured for 0.25 to 8 hrs by LC-MS/MS analysis; assay type: ADME, organism-based; settings: in vivo, time 0.25-8 hrs
[19] = MRT (0 to infinity) in ICR mouse at 10 mg/kg,po administration measured for 0.25 to 8 hrs by LC-MS/MS analysis; assay type: ADME, organism-based; settings: in vivo, time 0.25-8 hrs
[20] = Half life in ICR mouse at 1 mg/kg,iv administration measured for 0.25 to 8 hrs by LC-MS/MS analysis; assay type: ADME, organism-based; settings: in vivo, time 0.25-8 hrs
[21] = Half life in ICR mouse at 10 mg/kg,po administration measured for 0.25 to 8 hrs by LC-MS/MS analysis; assay type: ADME, organism-based; settings: in vivo, time 0.25-8 hrs
[22] = Apparent volume of distribution in ICR mouse at 1 mg/kg,iv administration measured for 0.25 to 8 hrs by LC-MS/MS analysis; assay type: ADME, organism-based; settings: in vivo, time 0.25-8 hrs, read-out: Vz
[23] = Apparent volume of distribution in ICR mouse at 10 mg/kg,po administration measured for 0.25 to 8 hrs by LC-MS/MS analysis; assay type: ADME, organism-based; settings: in vivo, time 0.25-8 hrs
[24] = Clearance in ICR mouse at 1 mg/kg,iv administration measured for 0.25 to 8 hrs by LC-MS/MS analysis; assay type: ADME, organism-based; settings: in vivo, time 0.25-8 hrs
[25] = Clearance in ICR mouse at 10 mg/kg,po administration measured for 0.25 to 8 hrs by LC-MS/MS analysis; assay type: ADME, organism-based; settings: in vivo, time 0.25-8 hrs
[26] = Bioavailability in ICR mouse at 1 mg/kg,iv administration measured for 0.25 to 8 hrs by LC-MS/MS analysis; assay type: ADME, organism-based; settings: in vivo, time 0.25-8 hrs
[27] = system: Mus musculus; test: Analgesic activity against acetic acid-induced ICR mouse assessed as number of writhing at 50 mg/kg,ip pre-administrated with compound for 15 mins followed by acetic acid addition and measured after 15 mins; assay type: functional; settings: time 30 min, 0.5 h
[28] = system: Mus musculus; test: Analgesic activity against acetic acid-induced ICR mouse assessed as inhibition of writhing at 50 mg/kg,ip pre-administrated with compound for 15 mins followed by acetic acid addition and measured after 15 mins; assay type: functional; settings: 0.5 h, time 30 min

Prostaglandin G/H synthase 2 (Homo sapiens), sequence (P35354 whole entry, looked up): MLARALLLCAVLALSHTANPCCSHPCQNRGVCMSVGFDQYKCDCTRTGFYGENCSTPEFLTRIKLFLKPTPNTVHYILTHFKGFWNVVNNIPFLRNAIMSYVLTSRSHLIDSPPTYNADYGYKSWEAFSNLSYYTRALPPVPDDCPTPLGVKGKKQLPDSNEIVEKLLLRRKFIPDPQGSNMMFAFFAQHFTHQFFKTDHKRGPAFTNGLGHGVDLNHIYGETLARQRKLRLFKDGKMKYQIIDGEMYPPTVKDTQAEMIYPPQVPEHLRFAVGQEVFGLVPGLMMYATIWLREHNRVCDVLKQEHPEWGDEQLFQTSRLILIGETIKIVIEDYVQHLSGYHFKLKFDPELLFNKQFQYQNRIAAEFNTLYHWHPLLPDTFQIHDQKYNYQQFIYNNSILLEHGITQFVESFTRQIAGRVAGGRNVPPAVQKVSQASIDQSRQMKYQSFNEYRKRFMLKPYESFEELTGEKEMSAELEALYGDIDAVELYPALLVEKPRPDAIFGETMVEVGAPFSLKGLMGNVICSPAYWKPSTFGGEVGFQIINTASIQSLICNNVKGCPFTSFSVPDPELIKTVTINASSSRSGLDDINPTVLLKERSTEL

SMILES: Cc1nn(-c2ccccc2)c(O)c1Cc1ccc(S(C)(=O)=O)cc1
inhibition [1]: 37.1% | inhibition [2]: 77.5% | inhibition [3]: 90%

SMILES: CC(C)(C)c1nn(-c2ccccc2)c(O)c1Cc1ccc(C(=O)NO)cc1
inhibition [1]: 72.9% | IC50 [4]: 19.6 µM | inhibition [2]: 75% | inhibition [3]: 89%

SMILES: Cc1nn(-c2ccc(Cl)cc2)c(O)c1Cc1ccc(C(=O)O)cc1
inhibition [1]: 36.1% | inhibition [2]: 46% | inhibition [3]: 78.5%

SMILES: Cc1nn(-c2ccccc2)c(O)c1Cc1ccc(CC(=O)O)cc1
inhibition [1]: 38.5% | inhibition [2]: 78% | inhibition [3]: 86.5%

SMILES: Cc1ccc(-c2cc(C(F)(F)F)nn2-c2ccc(S(N)(=O)=O)cc2)cc1 [CELECOXIB]
Activity [5]: 7.1 | inhibition in vivo at 20 mg/kg [6]: 80.9%

SMILES: CC(C)(C)c1nn(-c2ccccc2)c(O)c1Cc1ccc(C(=O)O)cc1
inhibition [1]: 49.9% | inhibition [2]: 54.5% | inhibition [3]: 73%

SMILES: CC1=NN(c2ccccc2)C(=O)C1 [EDARAVONE]
inhibition [1]: 64.3% | IC50 [4]: 32.8 µM | inhibition at 250 µM [7]: 37.7% | inhibition at 500 µM [8]: 46.9% | inhibition at 1000 µM [9]: 62.2%

SMILES: Cc1nn(-c2ccccc2)c(O)c1Cc1ccc(C(=O)O)cc1
inhibition [1]: 37.7% | inhibition [2]: 85.5% | inhibition [3]: 95%

SMILES: O=C(O)c1ccc(Cc2c(C3CC3)nn(-c3ccccc3)c2O)cc1
inhibition [1]: 37.3% | inhibition [2]: 57.5% | inhibition [3]: 82%

SMILES: Cc1nn(-c2cccc(Cl)c2)c(O)c1Cc1ccc(C(=O)NO)cc1
inhibition [1]: 69.2% | IC50 [4]: 23.8 µM | inhibition [2]: 75% | inhibition [3]: 90.5%

SMILES: COc1cccc(-n2nc(C)c(Cc3ccc(C(=O)O)cc3)c2O)c1
inhibition [1]: 33.6% | inhibition [2]: 58.5% | inhibition [3]: 79%

Now from value to compound, other results behind:

inhibition [2]: 50.5% | inhibition [3]: 81%
SMILES: Cc1nn(-c2ccc(Cl)c(Cl)c2)c(O)c1Cc1ccc(C(=O)O)cc1
inhibition [1]: 38.6%

inhibition [2]: 63.5% | inhibition [3]: 94.5%
SMILES: Cc1nn(-c2ccccc2)c(O)c1Cc1cccc(C(=O)O)c1
inhibition [1]: 17.4%

inhibition [2]: 45.5% | inhibition [3]: 75%
SMILES: Cc1nn(-c2cccc(Cl)c2)c(O)c1Cc1ccc(C(=O)O)cc1
inhibition [1]: 35.8%

inhibition [2]: 58.5% | inhibition [3]: 80.5%
SMILES: Cc1nn(-c2ccc(Cl)c(Cl)c2)c(O)c1Cc1ccc(C(=O)NO)cc1
inhibition [1]: 58.1%

inhibition [2]: 66.5% | inhibition [3]: 86%
SMILES: Cc1[nH]n(-c2ccccc2)c(=O)c1Cc1cccc(C(=O)NO)c1
inhibition [1]: 11%

inhibition [2]: 77.5% | inhibition [3]: 84.5%
SMILES: Cc1nn(-c2ccccc2)c(O)c1Cc1cccc(S(C)(=O)=O)c1
inhibition [1]: 22.8%

inhibition [2]: 64.5% | inhibition [3]: 78.5%
SMILES: Cc1nn(-c2ccc(Cl)cc2)c(O)c1Cc1ccc(C(=O)NO)cc1
inhibition [1]: 68%

IC50 [4]: 19.9 µM | Tmax [10]: 4.8 min | Tmax [11]: 1 h | Cmax [12]: 12200 ng/mL | Cmax [13]: 4510 ng/mL | AUC(0-t) [14]: 7680 ng·h/mL | AUC(0-t) [15]: 20300 ng·h/mL | AUC(0-inf) [16]: 7870 ng·h/mL | AUC(0-inf) [17]: 28400 ng·h/mL | MRT inf [18]: 1.08 h | MRT inf [19]: 6.32 h | half-life [20]: 2.74 h | half-life [21]: 4.16 h | Vd [22]: 0.508 L/kg | Vz [23]: 2.13507 L/kg | clearance [24]: 2.12 mL/min/kg | CL/F [25]: 5.92 mL/min/kg | bioavailability [26]: 36% | inhibition [2]: 87% | inhibition [3]: 98%
SMILES: Cc1[nH]n(-c2ccccc2)c(=O)c1Cc1ccc(C(=O)NO)cc1
inhibition [1]: 71.6% | inhibition at 250 µM [7]: 51.9% | inhibition at 500 µM [8]: 62.3% | inhibition at 1000 µM [9]: 77.3% | Activity [5]: 11.1 | Activity [27]: 9.8 | inhibition in vivo at 20 mg/kg [6]: 70.2% | inhibition in vivo at 50 mg/kg [28]: 73.7%

inhibition [2]: 55% | inhibition [3]: 72.5%
SMILES: O=C(NO)c1ccc(Cc2c(C3CC3)[nH]n(-c3ccccc3)c2=O)cc1
inhibition [1]: 64.7%

IC50 [4]: 22.1 µM | inhibition [2]: 70.5% | inhibition [3]: 82.5%
SMILES: CCc1nn(-c2ccccc2)c(O)c1Cc1ccc(C(=O)NO)cc1
inhibition [1]: 67.7%

inhibition [2]: 63.5% | inhibition [3]: 83.5%
SMILES: CCc1nn(-c2ccccc2)c(O)c1Cc1ccc(C(=O)O)cc1
inhibition [1]: 42.7%

inhibition [2]: 78% | inhibition [3]: 89%
SMILES: COc1cccc(-n2nc(C)c(Cc3ccc(C(=O)NO)cc3)c2O)c1
inhibition [1]: 43.3%
